This note sets out measurements from article PMC10573892, “β-Lactam TRPM8 Antagonists Derived from Phe-Phenylalaninol Conjugates: Structure–Activity Relationships and Antiallodynic Activity” (International Journal of Molecular Sciences, 2023).

A word on the IC50: it is the concentration needed to halve the response being measured. What is called inhibition is the relative decrease from the control value, in per cent.

One assay has as its target T1, hTRPM8 (Homo sapiens, UniProt Q7Z2W7).
T1 construct: expressed in transfected cells; host or cells: HEK293
Briefly: Ca2+ microfluorimetry in HEK293 cells expressing human TRPM8. It counts as cell-based. Conditions: activation by 100 µM menthol; read-out: Ca^2+ Microfluorimetry Assays hTRPM8 IC50. The protocol:
To further characterize this family of compounds, calcium microfluorimetry assays were conducted using the HEK293 cell line, which expresses the human isoform of the TRPM8 channel. Amide derivatives 34 and 35 were selected, and their outcomes were compared with those of the model compound 1 (Table 4). […] This behavior is not particular of these β-lactams, but it is similar to those observed for other TRPM8 antagonists.
(§1) Calcium fluorometry, Patch-Clamp assays and in vivo experiments were performed using the methodology previously described for TRPM8 [35] or TRPM3 [61]. In the Patch -Clamp experiments, the intracellular pipette solution contained (in mM) 140 KCl, 5 EGTA, and 10 mM HEPES, adjusted to pH 7.2 with KOH, and the extracellular solution contained (in mM) 140 NaCl, 2 CaCl2, 1 MgCl2, 10 D-glucose and 10 HEPES, adjusted to pH 7.4 with NaOH. Selectivity against TRPV1, TRPV3, TRPA1 and ASIC3 was subcontracted to Eurofins-CEREP or Eurofins-PANLABS (see ref. [35] for more details).

The next assay addresses T2, hASIC3 channel (Homo sapiens, UniProt Q9UHC3).
T2 construct: Eurofins-CEREP or Eurofins-PANLABS (contract assay)
T2 sequence (Q9UHC3 1-531): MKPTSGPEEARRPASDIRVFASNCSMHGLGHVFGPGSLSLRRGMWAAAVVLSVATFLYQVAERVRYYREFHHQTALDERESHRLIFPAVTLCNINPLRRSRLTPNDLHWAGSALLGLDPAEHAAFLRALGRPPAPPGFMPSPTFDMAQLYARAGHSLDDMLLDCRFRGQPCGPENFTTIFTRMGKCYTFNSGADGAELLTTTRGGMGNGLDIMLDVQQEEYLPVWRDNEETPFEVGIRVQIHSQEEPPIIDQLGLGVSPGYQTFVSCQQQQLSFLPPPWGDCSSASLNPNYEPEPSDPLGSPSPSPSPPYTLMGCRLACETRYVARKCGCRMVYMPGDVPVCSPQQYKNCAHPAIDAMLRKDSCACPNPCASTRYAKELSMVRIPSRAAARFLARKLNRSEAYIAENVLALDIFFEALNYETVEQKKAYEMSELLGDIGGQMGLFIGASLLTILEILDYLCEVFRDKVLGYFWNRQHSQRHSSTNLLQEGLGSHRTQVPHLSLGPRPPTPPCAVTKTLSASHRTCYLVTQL
The assay is described as follows: ASIC3 channel functional assay (buffer pH 5.5). It counts as cell-based.
Description: (§2) The effects of compound 34 have been evaluated on different ion channels and receptors implicated in pain-related processes to assess the selectivity for TRPM8 channels. First, some TRP channels that play a role in temperature integration and nociception were selected, including hTRPV1, hTRPV3, hTRPA1 and TRPM3. Additionally, the evaluation encompassed the hASIC3 channel with widespread distribution within the peripheral nervous system and contributions to the excitability of primary sensory neurons. In each instance, the compound was subjected to evaluation at a consistent concentration of 10 µM.
as §1

The target in another assay is T3, hTRPV1 (Homo sapiens, UniProt Q8NER1).
T3 construct: Eurofins-CEREP or Eurofins-PANLABS (contract assay)
T3 sequence (Q8NER1 whole entry): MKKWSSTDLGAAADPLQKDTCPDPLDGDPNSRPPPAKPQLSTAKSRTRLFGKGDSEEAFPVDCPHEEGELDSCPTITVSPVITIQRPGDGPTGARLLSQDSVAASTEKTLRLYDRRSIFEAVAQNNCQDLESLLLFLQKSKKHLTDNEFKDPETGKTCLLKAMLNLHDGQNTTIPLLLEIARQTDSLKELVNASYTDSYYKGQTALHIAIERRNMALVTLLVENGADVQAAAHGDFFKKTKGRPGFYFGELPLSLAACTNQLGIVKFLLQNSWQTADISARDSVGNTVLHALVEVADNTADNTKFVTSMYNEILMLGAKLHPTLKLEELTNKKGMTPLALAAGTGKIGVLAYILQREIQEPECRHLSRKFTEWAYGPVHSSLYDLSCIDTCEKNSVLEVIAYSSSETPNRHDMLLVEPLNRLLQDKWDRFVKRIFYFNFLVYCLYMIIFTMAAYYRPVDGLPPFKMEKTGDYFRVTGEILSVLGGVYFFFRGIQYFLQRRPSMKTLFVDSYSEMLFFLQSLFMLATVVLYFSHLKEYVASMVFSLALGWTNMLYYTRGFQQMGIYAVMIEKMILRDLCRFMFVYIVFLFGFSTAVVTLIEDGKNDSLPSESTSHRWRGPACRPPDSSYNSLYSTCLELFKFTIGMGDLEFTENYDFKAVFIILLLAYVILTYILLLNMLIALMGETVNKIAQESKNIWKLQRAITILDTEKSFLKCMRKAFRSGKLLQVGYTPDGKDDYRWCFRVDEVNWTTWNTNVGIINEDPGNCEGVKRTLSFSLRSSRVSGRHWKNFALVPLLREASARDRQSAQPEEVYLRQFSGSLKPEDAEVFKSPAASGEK
Briefly: TRPV1 channel Ca2+ microfluorimetry (capsaicin 30 nM). It counts as cell-based.
Description: as §2, §1

The next assay addresses hM3 (Homo sapiens, UniProt P20309). The assay is described as follows: Radioligand binding at muscarinic M3 receptor. As to conditions: radioligand [3H]4-DMAP. From the text: Furthermore, the investigation extended to measuring the binding affinity of compound 34 to calcitonin gene-related peptide hCGRPR, cannabinoid hCB2 and muscarinic hM3 receptors, which are all relevant to different pain conditions.

Another assay addresses T4, hTRPA1 (Homo sapiens, UniProt O75762).
T4 construct: Eurofins-CEREP or Eurofins-PANLABS (contract assay)
The assay is described as follows: TRPA1 channel Ca2+ microfluorimetry (allylisothiocyanate 10 μM). It counts as cell-based. As to conditions: agonist allylisothiocyanate 10 μM.
Description: as §2, §1

A further assay concerns the target hTRPM3 (Homo sapiens, UniProt Q9HCF6). Briefly: TRPM3 channel Ca2+ microfluorimetry (pregnenolone sulfate 50 µM). It counts as cell-based. Conditions: 10 μM; agonist pregnenolone sulfate 50 µM; read-out: % Channel Inhibition at 10 μM hTRPM3. As for the experimental part: First, some TRP channels that play a role in temperature integration and nociception were selected, including hTRPV1, hTRPV3, hTRPA1 and TRPM3. Additionally, the evaluation encompassed the hASIC3 channel with widespread distribution within the peripheral nervous system and contributions to the excitability of primary sensory neurons. In each instance, the compound was subjected to evaluation at a consistent concentration of 10 µM.
as §1

The next assay deals with T5, rTRPM8 (Rattus norvegicus, UniProt Q8R455).
T5 construct: expressed in transfected cells
Briefly: Patch-Clamp electrophysiology on single HEK293 cells expressing rat TRPM8. It counts as cell-based. As to conditions: activation by 100 µM menthol; holding voltage −60 mV.
Description: A recent research study using Patch-Clamp, among other techniques, established that menthol occupies a cavity within the TRPM8 S1–S4 transmembrane helix, with the OH group forming an H-bond with the δ-NH of R842 residue, and Van der Waals interactions among the methyl groups of the ^iPr moiety and residues I846 and L843 [41].
This is evident by a negligible current at negative potentials and a linear intensification of the ohmic current at positive voltages. When applying compound 34 at a concentration of […], a noticeable reduction in menthol-induced activity at depolarizing voltages was observed (indicated by the red line) compared to menthol alone. Dose–response relationships for both tested compounds were established through triplicate experiments at various concentrations, applying a holding voltage of −60 mV (as shown in Figure 2B).
as §1
Figure 2 Compound 34 blocks TRPM8-mediated responses evoked by menthol in rTRPM8-expressing HEK293 cells. (A) IV curves obtained after exposure to vehicle solution (green trace), 100 µM menthol (blue trace) and 100 µM menthol + 10 µM 34 (red trace). Peak current data were expressed as pA/pF (to allow comparison among different size cells). Each point is the mean ± SEM of n = 15. (B) Concentration/response curves for rTRPM8 current blockade by 34 at a holding voltage of −60 mV. […]
Background: In patch-clamp work, channel activity is measured electrically.

Structures are written as SMILES.

T1 sequence (Q7Z2W7 whole entry): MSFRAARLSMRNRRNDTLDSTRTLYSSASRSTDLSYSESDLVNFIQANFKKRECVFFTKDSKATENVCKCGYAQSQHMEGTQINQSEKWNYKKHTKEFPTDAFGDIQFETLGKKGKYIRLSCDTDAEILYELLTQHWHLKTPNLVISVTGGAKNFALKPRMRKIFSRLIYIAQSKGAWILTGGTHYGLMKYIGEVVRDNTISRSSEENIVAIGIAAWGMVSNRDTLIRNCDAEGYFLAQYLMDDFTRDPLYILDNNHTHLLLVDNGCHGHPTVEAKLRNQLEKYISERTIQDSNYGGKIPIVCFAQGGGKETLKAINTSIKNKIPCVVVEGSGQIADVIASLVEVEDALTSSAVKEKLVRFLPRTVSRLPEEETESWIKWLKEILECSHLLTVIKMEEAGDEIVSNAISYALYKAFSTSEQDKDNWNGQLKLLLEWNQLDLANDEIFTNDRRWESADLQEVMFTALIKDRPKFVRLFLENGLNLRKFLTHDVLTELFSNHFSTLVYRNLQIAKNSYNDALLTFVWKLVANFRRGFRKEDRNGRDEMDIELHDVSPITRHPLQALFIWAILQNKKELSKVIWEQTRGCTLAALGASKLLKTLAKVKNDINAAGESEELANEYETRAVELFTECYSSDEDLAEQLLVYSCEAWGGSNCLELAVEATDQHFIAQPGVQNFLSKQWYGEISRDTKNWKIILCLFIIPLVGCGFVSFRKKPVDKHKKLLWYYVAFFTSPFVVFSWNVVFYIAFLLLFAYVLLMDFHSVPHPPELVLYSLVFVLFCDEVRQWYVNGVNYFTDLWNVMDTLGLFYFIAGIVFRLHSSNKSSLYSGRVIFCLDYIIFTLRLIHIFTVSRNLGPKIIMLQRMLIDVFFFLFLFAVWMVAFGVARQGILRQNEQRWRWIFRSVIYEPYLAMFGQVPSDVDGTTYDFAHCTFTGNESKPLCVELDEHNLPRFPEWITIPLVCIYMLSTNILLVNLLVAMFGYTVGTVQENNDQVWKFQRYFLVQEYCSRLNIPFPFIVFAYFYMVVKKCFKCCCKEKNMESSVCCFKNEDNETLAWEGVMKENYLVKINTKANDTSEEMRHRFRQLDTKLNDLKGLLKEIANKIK
Chain of hM3 (P20309 whole entry): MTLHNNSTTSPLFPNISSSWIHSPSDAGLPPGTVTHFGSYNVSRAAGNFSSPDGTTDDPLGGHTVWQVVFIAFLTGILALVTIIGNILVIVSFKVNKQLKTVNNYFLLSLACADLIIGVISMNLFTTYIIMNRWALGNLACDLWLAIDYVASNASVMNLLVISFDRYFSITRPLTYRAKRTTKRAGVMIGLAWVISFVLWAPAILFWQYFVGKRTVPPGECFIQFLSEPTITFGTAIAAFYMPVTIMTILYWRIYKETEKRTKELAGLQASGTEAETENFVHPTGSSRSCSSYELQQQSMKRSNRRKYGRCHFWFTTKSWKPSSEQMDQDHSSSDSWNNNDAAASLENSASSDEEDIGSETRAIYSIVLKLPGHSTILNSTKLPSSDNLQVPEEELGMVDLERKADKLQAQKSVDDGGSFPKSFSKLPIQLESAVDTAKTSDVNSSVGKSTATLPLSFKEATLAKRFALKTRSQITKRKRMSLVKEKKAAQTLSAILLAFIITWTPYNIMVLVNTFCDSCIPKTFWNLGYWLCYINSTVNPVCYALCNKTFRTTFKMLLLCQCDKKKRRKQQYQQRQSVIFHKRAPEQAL
Chain of hTRPM3 (Q9HCF6 whole entry): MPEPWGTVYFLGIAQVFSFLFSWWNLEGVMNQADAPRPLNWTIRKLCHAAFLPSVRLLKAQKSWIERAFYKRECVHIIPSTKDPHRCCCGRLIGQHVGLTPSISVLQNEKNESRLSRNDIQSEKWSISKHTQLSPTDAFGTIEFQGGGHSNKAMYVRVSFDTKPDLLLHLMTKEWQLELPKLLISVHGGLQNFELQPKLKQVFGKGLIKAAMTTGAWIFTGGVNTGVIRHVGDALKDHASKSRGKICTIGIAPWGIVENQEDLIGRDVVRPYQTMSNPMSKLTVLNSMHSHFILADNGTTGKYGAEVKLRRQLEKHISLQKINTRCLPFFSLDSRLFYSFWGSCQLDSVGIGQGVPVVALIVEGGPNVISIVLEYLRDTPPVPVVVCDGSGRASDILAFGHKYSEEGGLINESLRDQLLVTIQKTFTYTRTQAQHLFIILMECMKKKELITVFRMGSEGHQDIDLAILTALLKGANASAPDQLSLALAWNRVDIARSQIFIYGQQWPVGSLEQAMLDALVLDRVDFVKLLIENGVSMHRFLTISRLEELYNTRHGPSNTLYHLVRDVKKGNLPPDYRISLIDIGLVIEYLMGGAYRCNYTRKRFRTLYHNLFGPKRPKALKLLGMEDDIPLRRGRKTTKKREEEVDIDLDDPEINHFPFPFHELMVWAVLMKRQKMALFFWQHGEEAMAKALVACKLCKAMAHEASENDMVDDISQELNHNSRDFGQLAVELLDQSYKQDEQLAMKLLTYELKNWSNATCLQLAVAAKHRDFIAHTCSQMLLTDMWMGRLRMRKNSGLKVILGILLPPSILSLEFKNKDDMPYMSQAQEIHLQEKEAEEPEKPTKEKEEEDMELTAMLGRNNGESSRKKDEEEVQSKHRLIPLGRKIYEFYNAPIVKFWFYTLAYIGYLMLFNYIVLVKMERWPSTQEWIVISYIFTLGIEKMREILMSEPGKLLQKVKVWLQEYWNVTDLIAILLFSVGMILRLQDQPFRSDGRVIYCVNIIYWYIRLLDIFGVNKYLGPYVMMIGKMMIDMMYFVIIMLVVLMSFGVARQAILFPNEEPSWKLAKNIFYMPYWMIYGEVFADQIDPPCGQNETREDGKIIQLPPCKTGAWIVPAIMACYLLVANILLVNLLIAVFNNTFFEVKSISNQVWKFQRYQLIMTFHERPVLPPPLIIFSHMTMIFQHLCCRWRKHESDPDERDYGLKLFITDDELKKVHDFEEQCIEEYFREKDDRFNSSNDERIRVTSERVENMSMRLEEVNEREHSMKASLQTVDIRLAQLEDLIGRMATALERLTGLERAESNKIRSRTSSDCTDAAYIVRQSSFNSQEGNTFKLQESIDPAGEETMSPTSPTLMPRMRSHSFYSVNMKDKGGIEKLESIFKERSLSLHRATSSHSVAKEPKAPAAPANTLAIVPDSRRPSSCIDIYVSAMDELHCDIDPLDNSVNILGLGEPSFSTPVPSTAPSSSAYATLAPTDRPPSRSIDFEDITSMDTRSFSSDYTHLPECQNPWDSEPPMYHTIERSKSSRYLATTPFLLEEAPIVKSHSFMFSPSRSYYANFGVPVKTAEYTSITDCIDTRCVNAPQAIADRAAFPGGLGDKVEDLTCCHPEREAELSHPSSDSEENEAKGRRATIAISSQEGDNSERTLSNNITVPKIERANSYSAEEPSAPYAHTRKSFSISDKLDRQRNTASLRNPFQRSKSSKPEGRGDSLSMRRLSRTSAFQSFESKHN

Turning to `CC(C)CNC(=O)[C@]1(Cc2ccccc2)[C@H](C)C(=O)N1C[C@H](Cc1ccccc1)N(Cc1ccccc1)Cc1ccccc1` [Compound 34, 4S-Benzyl-4-[N-(iso-butyl)-carbamoyl]-3S-methyl-1-[(2′S-dibenzylamino-3′-phenyl)prop-1′-yl]-2-oxoazetidine], the IC50 at hTRPM8 was 2580 ± 1240 nM; against rTRPM8, 160 nM. In addition, the inhibition at 10 µM on hASIC3 channel is 2.2 ± 9.6%; at hTRPV1 (10 μM, agonist capsaicin 30 nM), 8.9 ± 2.9%; at hM3, 5.2 ± 3.2%; on hTRPA1, 2 ± 3.4%; on hTRPM3 it was 6.9 ± 10.7%. The “activation on the TRPV1 channel” value at hTRPV1 (10 µM) is “did not show activation”.
